# From patent US20070059769A1, “High throughput glycan microarrays” (priority 2004, published 2007)
# Where two headings read alike, the source gives them in different places.
# B1: Ceruloplasmine (protein, UniProt P00450 20-1065, looked up)
# Ceruloplasmin: KEKHYYIGIIETTWDYASDHGEKKLISVDTEHSNIYLQNGPDRIGRLYKKALYLQYTDETFRTTIEKPVWLGFLGPIIKAETGDKVYVHLKNLASRPYTFHSHGITYYKEHEGAIYPDNTTDFQRADDKVYPGEQYTYMLLATEEQSPGEGDGNCVTRIYHSHIDAPKDIASGLIGPLIICKKDSLDKEKEKHIDREFVVMFSVVDENFSWYLEDNIKTYCSEPEKVDKDNEDFQESNRMYSVNGYTFGSLPGLSMCAEDRVKWYLFGMGNEVDVHAAFFHGQALTNKNYRIDTINLFPATLFDAYMVAQNPGEWMLSCQNLNHLKAGLQAFFQVQECNKSSSKDNIRGKHVRHYYIAAEEIIWNYAPSGIDIFTKENLTAPGSDSAVFFEQGTTRIGGSYKKLVYREYTDASFTNRKERGPEEEHLGILGPVIWAEVGDTIRVTFHNKGAYPLSIEPIGVRFNKNNEGTYYSPNYNPQSRSVPPSASHVAPTETFTYEWTVPKEVGPTNADPVCLAKMYYSAVEPTKDIFTGLIGPMKICKKGSLHANGRQKDVDKEFYLFPTVFDENESLLLEDNIRMFTTAPDQVDKEDEDFQESNKMHSMNGFMYGNQPGLTMCKGDSVVWYLFSAGNEADVHGIYFSGNTYLWRGERRDTANLFPQTSLTLHMWPDTEGTFNVECLTTDHYTGGMKQKYTVNQCRRQSEDSTFYLGERTYYIAAVEVEWDYSPQREWEKELHHLQEQNVSNAFLDKGEFYIGSKYKKVVYRQYTDSTFRVPVERKAEEEHLGILGPQLHADVGDKVKIIFKNMATRPYSIHAHGVQTESSTVTPTLPGETLTYVWKIPERSGAGTEDSACIPWAYYSTVDQVKDLYSGLIGPLIVCRRPYLKVFNPRRKLEFALLFLVFDENESWYLDDNIKTYSDHPEKVNKDDEEFIESNKMHAINGRMFGNLQGLTMHVGDEVNWYLMGMGNEIDLHTVHFHGHSFQYKHRGVYSSDVFDIFPGTYQTLEMFPRTPGIWLLHCHVTDHIHAGMETTYTVLQNEDTKSG
# modifications: N-glycans
# notes: mixture of bi and tri- and tetra-antenary N-glycans
# What was measured:
# [1] = system: β3GlcNAcT; experiment: β3GlcNAcT acceptor specificity; conditions: acceptor substrate; lactose (4) = 100%
# Procedure: Both enzymes, β4GalT-GalE and β3GlcNAcT, were over expressed in E. coli AD202 in a large-scale fermentor (100 L). Bacteria were cultured in 2YT medium and induced with iso-propyl-thiogalactopyranoside (IPTG) to ultimately produce 8-10 g of bacterial cell paste/L cell media. The enzymes were then released from the cells by a microfluidizer and were solubilized in Tris buffer (25 mM, pH 7.5) containing manganese chloride (10 mM) and Triton X (0.25%) to reach enzymatic activities of about 50 U/L and 115 U/L of cell culture β4GalT-GalE and β3GlcNAcT, respectively.
# [2] = biological target: T1, chST6GalNAc-I (Gallus gallus, UniProt Q92183); experiment: chST6GalNAc-I activity on small acceptor molecules; format: biochemical, chicken; conditions: α-D-galacto derivative as acceptor
# T1 construct: made in house; host or cells: insect cells
# Description: The inventors have previously reported the cloning, expression, and characterization of chicken ST6GalNAc-I and its use in preparative synthesis of the O-linked sialoside antigens, STn-, α(2-6)SiaT-, α(2-3)SiaT- and Di-SiaT-antigen. Blixt, O.; Allin, K.; Pereira, L.; Datta, A. and Paulson, J. C., J. Am. Chem. Soc. 2002, 124, 5739-5746. Briefly, the recombinant enzyme was expressed in insect cells and purified by CDP-sepharose affinity chromatography to generate approximately 10 U/L of cell culture.
# [3] = system: anti-carbohydrate antibodies in sera of metastatic breast cancer patients; experiment: glycan array binding of antibodies in sera of metastatic breast cancer patients; parameters: species or system human; conditions: sera diluted 1:25
# Procedure: Individual (not pooled) sera were collected from 9 patients who were diagnosed with metastatic breast cancer (MBC). Blood samples were collected before treatment, so that therapeutic intervention would not interfere with patient immune responses. One patient with breast cancer but with good prognosis (IDC, Stage 1) was also included in the study. As control, or “healthy” sera, sera from ten healthy individuals, 5 female and 5 male, with no known malignancies was collected.
# (§1) Sera were diluted 1:25 with PBS containing 3% BSA, and placed on the glycan array slide in humidified chamber at room temperature for 90 min. The glycan array slide was then rinsed gently with PBS/0.05% Tween, incubated with biotinylated goat antibody against human IgG, IgM and IgA, rinsed in PBS/0.05% Tween, and incubated with streptavidin-Alexa488 fluorescent dye. Following rinses in PBS/0.05% Tween and H2O, glycan array slides were dried and scanned using the commercial DNA array scanner. […] Signal to background was typically greater 50:1 and no background subtractions were performed. Data were plotted using MS Excel software.
# [4] = system: serum antibodies of xenotransplant recipients; experiment: glycan array binding of antibodies in sera of recipients of porcine fetal pancreas islet-like cell clusters; parameters: species or system human; conditions: before and 1, 6, 12 months after transplantation
# Procedure: In 1991-1994, several diabetic (I) patients received transplantation of porcine fetal pancreas islet-like cell clusters (ICC). See, Groth, C. G. et al. Transplantation of porcine fetal pancreas to diabetic patients, The Lancet 344: 1402-4 (1994). The inventor analyzed serum from three of these patients before transplant (t=0), 1 months after (t=1), 6 months after (t=2) and 12 months after (t=3) transplant.
# as §1, with “as needed” for “1:25”
# [5] = system: 2G12; experiment: glycan array binding of anti-HIV 2G12 monoclonal antibody; parameters: species or system human
# [6] = biological target: Concanavalin A (Canavalia ensiformis, UniProt P02866); conditions: printing times up to 5 hours
# Procedure: Glycan Binding Protein binding assay. Printed slides were analyzed without any further modification of the surface. […] GBP's were added at a concentration of 5-50 μg/mL in buffer (usually PBS containing 0.005-0.5% Tween-20). […] Slides were subsequently washed by successive rinses in (i) PBS-Tween (0.05%), (ii) PBS and (iii) de-ionized water, then immediately subjected to imaging.
# Image acquisition and signal processing. Fluorescence intensities were detected using a ScanArray 5000 (Perkin Elmer, Boston, Mass.) confocal scanner and image analyses were carried out using ImaGene image analysis software (BioDiscovery Inc, El Segundo, Calif.). Signal to background was typically greater than 50:1 and no background subtractions were performed.
# Binding of fluorescein-labeled concanavalin A (con A) was used as a measure of ligand coupling.
# T1 sequence (Q92183 whole entry): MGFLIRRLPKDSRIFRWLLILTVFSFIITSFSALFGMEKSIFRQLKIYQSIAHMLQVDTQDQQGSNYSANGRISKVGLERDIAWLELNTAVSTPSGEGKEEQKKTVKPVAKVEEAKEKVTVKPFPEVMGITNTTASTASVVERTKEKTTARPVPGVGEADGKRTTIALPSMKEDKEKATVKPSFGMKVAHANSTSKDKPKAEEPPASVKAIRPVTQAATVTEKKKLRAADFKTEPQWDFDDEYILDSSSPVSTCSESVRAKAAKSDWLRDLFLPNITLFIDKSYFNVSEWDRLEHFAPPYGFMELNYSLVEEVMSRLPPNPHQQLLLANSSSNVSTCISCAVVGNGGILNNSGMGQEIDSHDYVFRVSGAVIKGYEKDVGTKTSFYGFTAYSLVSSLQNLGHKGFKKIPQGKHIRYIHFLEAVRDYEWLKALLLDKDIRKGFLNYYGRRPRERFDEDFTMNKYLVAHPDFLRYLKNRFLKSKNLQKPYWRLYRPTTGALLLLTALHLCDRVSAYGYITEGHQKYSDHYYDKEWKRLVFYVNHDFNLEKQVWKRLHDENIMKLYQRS
molecule,measurement,setting,value
"OCC1O[C@@H](O)C(O)[C@@H](O)[C@@H]1O[C@@H]1OC(CO)[C@H](O)[C@H](O)C1O (stereo partly shown) [Acceptor 4, Galβ(1-4)Glc]",Relative enzyme activity (%) β(1-3)GlcNAcT-activity,[1],100%
O=[N+]([O-])c1ccc(O[C@@H]2OC(CO)[C@@H](O[C@@H]3OC(CO)[C@H](O)[C@H](O)C3O)[C@H](O)C2O)cc1 (stereo partly shown) [Compound 5],Relative enzyme activity (%) β(1-3)GlcNAcT-activity,[1],945%
CC(=O)N[C@H]1C(O)O[C@H](CO)[C@H](O)[C@@H]1O (stereo partly drawn) [D-GalNAc],"chST6GalNAc-I activity, cpm",[2],0 cpm
same,"chST6GalNAc-I activity, nmol/mg × min^−1",[2],0.00 nmol/mg × min^−1
"CC(=O)N[C@H]1[C@H](O[C@H]2[C@@H](O)[C@@H](CO)O[C@@H](O[C@H]3[C@H](O)[C@@H](O)C(O)O[C@@H]3CO)[C@@H]2O)O[C@H](CO)[C@@H](O)[C@@H]1O (stereo partly drawn) [LNT-2, GlcNAc-beta3-Gal-beta4-Glc-beta]",binding by / level of serum antibodies in metastatic breast cancer patients versus healthy individuals,[3],bind and higher than in the healthy individuals
Fucose-alpha2-Gal-beta3-GalNAc-beta3-Gal-alpha4-Gal-beta4-Glc [Globo-H],binding by / level of serum antibodies in metastatic breast cancer patients versus healthy individuals,[3],bind and higher than in the healthy individuals
Gal-beta3-GalNAc-beta4-[Neu5Ac-alpha3]-Gal-beta4-Glc-beta [GM1],binding by / level of serum antibodies in metastatic breast cancer patients versus healthy individuals,[3],bind and higher than in the healthy individuals
Galα1-3Galβ1-4(Fucα1-3)GlcNAcβSp [Glycan 34],reactivity of serum antibodies of xenotransplant recipients,[4],clearly exhibit an immune response
Galβ1-4(Fucα1-3)GlcNAcβSp [Glycan 65],reactivity of serum antibodies of xenotransplant recipients,[4],do not have antibodies
Galβ(1-4)GlcNAc [Acceptor 6],Relative enzyme activity (%) β(1-3)GlcNAcT-activity,[1],7-8%
Manα1-2Manα1-2Manα1-3(Manα1-2Manα1-3(Manα1-2Manα1-6)Manα1-6)Manβ1-4GlcNAcβ1-4GlcNAcβSp [Glycan 145],binding of 2G12,[5]; listed as Man9,relatively weakly bound
same,binding of 2G12,[5]; listed as Man-9-N-glycans,smaller level of binding
Manα1-2Manα1-3(Manα1-2Manα1-6)ManαSp [Glycan 136],binding of 2G12,[5],strong binding
same,Rel. spec. (relative binding activity of 2G12),[5]; 2G12 30 μg/mL pre-complexed with goat anti-human-IgG-FITC,"+++ (+++ >25,000)"
same,variation in maximal binding of con A,[6],less than 10%
Manα1-2Manα1-6(Manα1-3)Manα1-6(Manα1-2Manα1-3)Manβ1-4GlcNAcβ1-4GlcNAcβSp [Glycan 144],binding of 2G12,[5],strong preference
Manα1-3Manα1-6(Manα1-2Manα1-3)Manβ1-4GlcNAcβ1-4GlcNAcβSp [Glycan 140],binding of 2G12,[5],did not support binding at all
Manα1-6(Manα1-2Manα1-3)Manα1-6(Manα1-2Manα1-3)Manβ1-4GlcNAcβ1-4GlcNAcβSp [Glycan 143],binding of 2G12,[5],did not support binding at all
Manα1-6(Manα1-3)Manα1-6(Manα1-2Manα1-3)Manβ1-4GlcNAcβ1-4GlcNAcβSp [Glycan 142],binding of 2G12,[5],did not support binding at all
Neu5Acα2-6GalNAcα-,binding by / level of serum antibodies in metastatic breast cancer patients versus healthy individuals,[3],significantly higher levels
Neu5Gc(2-6)GalNAc,binding by / level of serum antibodies in metastatic breast cancer patients versus healthy individuals,[3],bind
B1,binding by / level of serum antibodies in metastatic breast cancer patients versus healthy individuals,[3],bind and significantly higher levels
